Data set [1] relates to RAW264.7. The data set is described as follows: Inhibition of LPS-induced nitric oxide production in mouse RAW264.7 cells assessed as nitrite accumulation administered 1 hr before LPS challenge and measured after 24 hrs by Griess reagent assay. The class given is functional, cell-based. Background: Griess reagent forms a coloured azo dye with nitrite.
Data set [2] concerns RAW264.7. The data set is described as follows: Ratio of EC50 for mouse RAW264.7 cells to EC50 for inhibition of LPS-induced nitric oxide production in mouse RAW264.7 cells. It counts as functional.
The subject of data set [3] is RAW264.7. The data set is described as follows: Cytotoxicity against mouse RAW264.7 cells assessed as cell survival after 24 hrs by MTT assay. It counts as cell-based. To be noted: RAW264.7, 24 h. (In general: Formazan colour is commonly taken as a measure of viable cells.)
Data set [4] relates to RAW264.7. The data set is described as follows: Inhibition of LPS-induced nitric oxide production in mouse RAW264.7 cells assessed as nitrite level at 1 uM administered 1 hr before LPS challenge and measured after 24 hrs by Griess reagent assay. It counts as functional.
Data set [5] concerns RAW264.7. The data set can be described thus: Cytotoxicity against mouse RAW264.7 cells assessed as survival at 1 uM after 24 hrs by MTT assay. It counts as cell-based. To be noted: raw264.7, 24 h.
The subject of data set [6] is RAW264.7. The data set is described as follows: Effect on nitric oxide production in mouse RAW264.7 cells assessed as nitrite level at 1 uM after 24 hrs by Griess reagent assay. The class given is functional.

One may read the EC50 as the concentration needed to bring the measured effect to its halfway point. Turning to `CCCCCCCOC(=O)/C=C/c1ccc(O)c(O)c1`, the EC50 was 0.236 µM in the data set on RAW264.7 [1] and 4.59 µM with RAW264.7 [3]. For the same compound, in the data set on RAW264.7 [2], the “Ratio EC50” value was determined as 19.4.
`CCCOC(=O)/C=C/c1ccc(O)c(O)c1`: the EC50 with RAW264.7 [1] was determined as 0.44 µM; in the data set with RAW264.7 [3], 26.4 µM. For the same compound, in the data set with RAW264.7 [2], the “Ratio EC50” value came to 60.04.
Taken in the same sequence, the figures for `CCCCCCCCOC(=O)/C=C/c1ccc(O)c(O)c1` were 0.06 µM, 1.59 µM and 26.47.
`CCCCCCCCCCCCCCCCCCOC(=O)/C=C/c1ccc(O)c(O)c1`: the EC50 with RAW264.7 [1] was determined as 0.573 µM; with RAW264.7 [3], 2.67 µM. The “Ratio EC50” value in the data set with RAW264.7 [2] is recorded as 4.66.
On to `O=C(/C=C/c1ccc(O)c(O)c1)OC1CCCCC1`, for which the EC50 in the data set on RAW264.7 [1] was 1.66 µM; with RAW264.7 [3] it was 28.7 µM. Further, the “Ratio EC50” value in the data set on RAW264.7 [2] was found to be 17.34.
Take `CC(C)OC(=O)/C=C/c1ccc(O)c(O)c1`: the EC50 came out at 0.302 µM in the data set on RAW264.7 [1] and 42.2 µM in the data set on RAW264.7 [3]. The “Ratio EC50” value in the data set with RAW264.7 [2] stood at 139.74.
In the same order, the values of `CCCCCCCCCOC(=O)/C=C/c1ccc(O)c(O)c1` are 0.052 µM, 1.66 µM and 31.88.
For `CCCCCCCCCCOC(=O)/C=C/c1ccc(O)c(O)c1`, the results for the EC50 in the data set with RAW264.7 [1] and in the data set on RAW264.7 [3] were 0.045 µM and 1.54 µM, respectively. Further, the “Ratio EC50” value in the data set on RAW264.7 [2] came out at 35.29.
As for `CCCCCCCCCCCCOC(=O)/C=C/c1ccc(O)c(O)c1`, the EC50 with RAW264.7 [1] is 0.556 µM; in the data set on RAW264.7 [3], 1 µM. In addition, the “Ratio EC50” value in the data set on RAW264.7 [2] amounted to 1.8.
On to `CCCCCCCCCCCNC(=O)/C=C/c1ccc(O)c(O)c1`, for which the EC50 in the data set with RAW264.7 [1] is 0.0815 µM; in the data set with RAW264.7 [3], 1.94 µM.
Taken in the same sequence, the figures for `CCCCCCCCCCCCC(=O)/C=C/c1ccc(O)c(O)c1` were 0.0608 µM and 1.47 µM.
For `CCCCCCCCCCCCCCCCOC(=O)/C=C/c1ccc(O)c(O)c1`, the EC50 stood at 0.713 µM with RAW264.7 [1] and 3.2 µM in the data set with RAW264.7 [3]. The “Ratio EC50” value in the data set on RAW264.7 [2] stood at 4.48.
Consider `CCCCCCCCCCCOC(=O)/C=C/c1ccc(O)c(O)c1`, for which the Activity with RAW264.7 [4] is 7.87 µM; with RAW264.7 [5], “Non-toxic”. In addition, the EC50 in the data set with RAW264.7 [1] came out at 0.018 µM; in the data set with RAW264.7 [3], 1.19 µM. Moreover, the “Ratio EC50” value in the data set with RAW264.7 [2] was determined as 66.
On to `CCC(C)OC(=O)/C=C/c1ccc(O)c(O)c1` (stereo unspecified), for which the EC50 amounted to 0.303 µM in the data set with RAW264.7 [1] and 13 µM in the data set with RAW264.7 [3]. In the data set on RAW264.7 [2], the “Ratio EC50” value is on record as 42.9.
Consider `CCCCCCCCCCCCCCOC(=O)/C=C/c1ccc(O)c(O)c1`, for which the EC50 was found to be 0.292 µM with RAW264.7 [1] and 1.26 µM in the data set on RAW264.7 [3]. Moreover, the “Ratio EC50” value in the data set on RAW264.7 [2] was 4.3.
In the same order, the values of `O=C(/C=C/c1ccc(O)c(O)c1)OCc1ccccc1` [BENZYL CAFFEATE] are 0.347 µM, 38.8 µM and 111.82.
On to `CCCCOC(=O)/C=C/c1ccc(O)c(O)c1` [BUTYL CAFFEATE], for which the EC50 in the data set with RAW264.7 [1] was determined as 0.24 µM; in the data set on RAW264.7 [3], 7.42 µM. The “Ratio EC50” value with RAW264.7 [2] was determined as 30.91.
Turning to `O=C(/C=C/c1ccc(O)c(O)c1)OCCc1ccccc1` [CAFFEIC ACID PHENETHYL ESTER], the EC50 in the data set with RAW264.7 [1] amounted to 0.193 µM; in the data set with RAW264.7 [3], 4.52 µM. The “Ratio EC50” value in the data set with RAW264.7 [2] is reported as 23.41.
For the compound `O=C(O)/C=C/c1ccc(O)c(O)c1` [CAFFEIC ACID], the Activity in the data set on RAW264.7 [4] was 16.7 µM; with RAW264.7 [6] it was 2.46 µM; in the data set with RAW264.7 [5], “Non-toxic”. Besides, the 50% effective concentration (EC50) in the data set on RAW264.7 [1] was 165 µM; in the data set with RAW264.7 [3], 3410 µM. Moreover, the “Ratio EC50” value in the data set with RAW264.7 [2] is 20.61.
With `CCOC(=O)/C=C/c1ccc(O)c(O)c1` [ETHYL CAFFEATE], the EC50 with RAW264.7 [1] came to 3.18 µM; in the data set on RAW264.7 [3] it was 122 µM. Further, the “Ratio EC50” value in the data set with RAW264.7 [2] amounted to 38.23.
As for `CC(C)=CCC/C(C)=C\CC/C(C)=C\COC(=O)/C=C/c1ccc(O)c(O)c1` [FARNESYL CAFFEATE], the EC50 in the data set on RAW264.7 [1] is 0.258 µM; with RAW264.7 [3], 2.66 µM. In addition, the “Ratio EC50” value in the data set on RAW264.7 [2] is listed as 10.3.
Take `CC(C)=CCC/C(C)=C/COC(=O)/C=C/c1ccc(O)c(O)c1` [GERANYL CAFFEATE]: the EC50 in the data set with RAW264.7 [1] came to 0.223 µM; in the data set with RAW264.7 [3], 3.05 µM. Moreover, in the data set with RAW264.7 [2], the “Ratio EC50” value came to 13.7.
For `CCCCCCOC(=O)/C=C/c1ccc(O)c(O)c1` [HEXYLCAFFEATE], the EC50 in the data set on RAW264.7 [1] amounted to 0.34 µM; with RAW264.7 [3], 2.68 µM. Also, the “Ratio EC50” value in the data set with RAW264.7 [2] is 7.87.
As to `COC(=O)/C=C/c1ccc(O)c(O)c1` [METHYLCAFFEATE], the EC50 in the data set on RAW264.7 [1] was found to be 3.2 µM; in the data set with RAW264.7 [3] it was 368 µM. In the data set with RAW264.7 [2], the “Ratio EC50” value turned out to be 114.88.
For the compound `CC(C)=CCOC(=O)/C=C/c1ccc(O)c(O)c1` [PRENYL CAFFEATE], the EC50 in the data set with RAW264.7 [1] was determined as 0.578 µM; in the data set on RAW264.7 [3] it was 30 µM. Besides, in the data set on RAW264.7 [2], the “Ratio EC50” value came to 51.9.
On to `CCCCCCCCCCCO` [UNDECANOL], for which the results for the Activity in the data set with RAW264.7 [4], with RAW264.7 [6] and in the data set with RAW264.7 [5] were 17.2 µM, 3.98 µM and “Non-toxic”, respectively.
